Source: US11439707B2, “Hypocrellin derivative substituted both in a peri-position and in 2-position by amino, preparation method, and application thereof” (priority 2017, dated 2022)
Values joined by “and” are separate entries in the source; they are usually repeats but may differ in a detail not shown here. Equal values may be shown once.

Experiments:
[1] = absorption spectrum (maximum absorption wavelength, molar extinction coefficient); format: physicochemical
[2] = singlet oxygen efficiency test, reference rose bengal; format: physicochemical

SMILES	maximum absorption wavelength [1]	molar extinction coefficient [1]	singlet oxygen yield [2] [%]
COc1c2c3c4c(c(NCc5cccc[n+]5C)c(=O)c5c(NCc6cccc[n+]6C)cc(OC)c(c6c(OC)cc(O)c(c1=O)c63)c54)C=C(C)C2C(C)=O (stereo not drawn) [HB-38c-N^+]	622 nm	22,500 M^−1cm^−1	21
COc1c2c3c4c(c(NCCCCCC(=O)O)c(=O)c5c(O)cc(OC)c(c6c(OC)cc(NCCCCCC(=O)O)c(c1=O)c63)c54)C=C(C)C2 [HC-9d]	624 nm	25,000 M^−1cm^−1	26
COc1c(NCCCC(=O)NCCCCS(=O)(=O)O)c2c(=O)cc(OC)c3c4c(OC)cc(=O)c5c(O)c(NCCCC(=O)NCCCCS(=O)(=O)O)c6c(c(c1CC(C)=C6)c23)c54 [HC-8b-NH—C4-SO3H]	624 nm	31,500 M^−1cm^−1	33
COc1c(O)c2c(=O)cc(OC)c3c4c(OC)cc(=O)c5c(NC(CO)C(=O)O)c(NC(CO)C(=O)O)c6c(c(c1C(C(C)=O)C(C)=C6)c23)c54 (stereo not drawn) [HB-23a]	625 nm	21,500 M^−1cm^−1	20
COc1c(O)c2c(=O)cc(OC)c3c4c(OC)cc(=O)c5c(NCCOC(=O)N6CC(=O)NC(=O)C6)c(NCCOC(=O)N6CC(=O)NC(=O)C6)c6c(c(c1C(C(C)=O)C(C)=C6)c23)c54 (stereo not drawn) [HB-40a]	620 nm	31,000 M^−1cm^−1	30
COc1c2c3c4c(c(NCCOC(=O)N5CC(=O)NC(=O)C5)c(=O)c5c(NCCOC(=O)N6CC(=O)NC(=O)C6)cc(OC)c(c6c(OC)cc(O)c(c1=O)c63)c54)C=C(C)C2C(C)=O (stereo not drawn) [HB-40c]	632 nm	34,000 M^−1cm^−1	40
COc1c(O)c2c(=O)cc(OC)c3c4c(OC)cc(=O)c5c(NO)c(NO)c6c(c(c1CC(C)=C6)c23)c54 [HC-37a]	620 nm	30,500 M^−1cm^−1	32
COCCOCCNC(=O)C1CCC(CNc2c(NCC3CCC(C(=O)NCCOCCOC)CC3)c3c(=O)cc(OC)c4c5c(OC)cc(=O)c6c(O)c(OC)c7c(c(c2C=C(C)C7)c34)c65)CC1 (stereo not drawn) [HC-13a-NH-PEG1]	624 nm	30,000 M^−1cm^−1	32
COCCOCCC(=O)OCCNc1c(NCCOC(=O)CCOCCOC)c2c(=O)cc(OC)c3c4c(OC)cc(=O)c5c(O)c(OC)c6c(c(c1C=C(C)C6)c23)c54 [HC-2a-PEG1]	622 nm	30,000 M^−1cm^−1	30
COCCOCCOCCOCCOCCOCCOCCOCCOCCOCCOCCOCCOCCC(=O)OC1CCC(Nc2c3c4c5c(c(OC)c(=O)c6c(O)cc(OC)c(c7c(OC)cc(NC8CCC(OC(=O)CCOCCOCCOCCOCCOCCOCCOCCOCCOCCOCCOCCOCCOC)C8)c(c2=O)c74)c65)C(C(C)=O)C(C)=C3)C1 (stereo not drawn) [HB-20c-PEG12]	632 nm	32,500 M^−1cm^−1	34
COCCOCCNC(=O)CCCNc1c(NCCCC(=O)NCCOCCOC)c2c(=O)cc(OC)c3c4c(OC)cc(=O)c5c(O)c(OC)c6c(c(c1C=C(C)C6)c23)c54 [HC-8a-NH-PEG1]	621 nm	30,500 M^−1cm^−1	30
COc1c2c3c4c(c(NCC(=O)O)c(=O)c5c(NCC(=O)O)cc(OC)c(c6c(OC)cc(O)c(c1=O)c63)c54)C=C(C)C2 [HC-7c]	630 nm	29,500 M^−1cm^−1	27
COc1c2c3c4c(c(NC5(CO)CC5)c(=O)c5c(O)cc(OC)c(c6c(OC)cc(NC7(CO)CC7)c(c1=O)c63)c54)C=C(C)C2C(C)=O (stereo not drawn) [HB-35d]	621 nm	31,500 M^−1cm^−1	30
COc1c2c3c4c(c(NCCNCCOCCOCCOCCOCCO)c(=O)c5c(NCCNCCOCCOCCOCCOCCO)cc(OC)c(c6c(OC)cc(O)c(c1=O)c63)c54)C=C(C)C2C(C)=O (stereo not drawn) [HB-5c-PEG4]	628 nm	31,500 M^−1cm^−1	35
COc1c2c3c4c(c(NCCO)c(=O)c5c(O)cc(OC)c(c6c(OC)cc(NCCO)c(c1=O)c63)c54)C=C(C)C2C(C)=O (stereo not drawn) [HB-2d]	629 nm	30,000 M^−1cm^−1	26
COc1c(O)c2c(=O)cc(OC)c3c4c(OC)cc(=O)c5c(NCCOCCO)c(NCCOCCO)c6c(c(c1CC(C)=C6)c23)c54 [HC-1a]	628 nm	28,000 M^−1cm^−1	36
COCCOCCOCCOCCOCCOCCOC(=O)C1CCC(Nc2c(O)c3c(=O)cc(OC)c4c5c(OC)cc(=O)c6c(NC7CCC(C(=O)OCCOCCOCCOCCOCCOCCOC)CC7)c(OC)c7c(c(c2C=C(C)C7C(C)=O)c34)c65)CC1 (stereo not drawn) [HB-14b-PEG6]	624 nm	30,500 M^−1cm^−1	34

SMILES	maximum absorption wavelength [1]	molar extinction coefficient [1]	singlet oxygen yield [2] [%]
COc1c(NC2CCC(C(=O)O)CC2)c2c(=O)cc(OC)c3c4c(OC)cc(=O)c5c(O)c(NC6CCC(C(=O)O)CC6)c6c(c(c1C(C(C)=O)C(C)=C6)c23)c54 (stereo not drawn) [HB-14b]	623 nm	27,000 M^−1cm^−1	24
COCCOCCOCCOCCOCCOCCOC(=O)C1CCC(Nc2c3c4c5c(c(OC)c(=O)c6c(NC7CCC(C(=O)OCCOCCOCCOCCOCCOCCOC)CC7)cc(OC)c(c7c(OC)cc(O)c(c2=O)c74)c65)C(C(C)=O)C(C)=C3)CC1 (stereo not drawn) [HB-14d-PEG6]	630 nm	31,500 M^−1cm^−1	32
COc1c(NCCCC(=O)O)c2c(=O)cc(OC)c3c4c(OC)cc(=O)c5c(O)c(NCC(=O)O)c6c(c(c1C(C(C)=O)C(C)=C6)c23)c54 (stereo not drawn) [HB-43b]	618 nm	26,000 M^−1cm^−1	25
COC(=O)C(CO)Nc1c2c3c4c(c(OC)c(=O)c5c(O)cc(OC)c(c6c(OC)cc(NC(CO)C(=O)OC)c(c1=O)c63)c54)C(C(C)=O)C(C)=C2 (stereo not drawn) [HB-24c]	622 nm	21,500 M^−1cm^−1	22
CCCNc1c2c3c4c(c(OC)c(=O)c5c(NCCC)cc(OC)c(c6c(OC)cc(O)c(c1=O)c63)c54)C(C(C)=O)C(C)=C2 (stereo not drawn) [HB-33d]	620 nm	32,500 M^−1cm^−1	32
COc1c(NC(CS)C(=O)O)c2c(=O)cc(OC)c3c4c(OC)cc(=O)c5c(O)c(NC(CS)C(=O)O)c6c(c(c1C(C(C)=O)C(C)=C6)c23)c54 (stereo not drawn) [HB-25b]	629 nm	20,500 M^−1cm^−1	20
COc1c2c3c4c(c(NCC5CCC(C(=O)NCCCCS(=O)(=O)O)CC5)c(=O)c5c(O)cc(OC)c(c6c(OC)cc(NCC7CCC(C(=O)NCCCCS(=O)(=O)O)CC7)c(c1=O)c63)c54)C=C(C)C2 (stereo not drawn) [HC-13d-C4-SO3H]	624 nm	31,000 M^−1cm^−1	30
COC(=O)C(CO)Nc1c(NC(CO)C(=O)OC)c2c(=O)cc(OC)c3c4c(OC)cc(=O)c5c(O)c(OC)c6c(c(c1C=C(C)C6C(C)=O)c23)c54 (stereo not drawn) [HB-24a]	625 nm	20,500 M^−1cm^−1	20
COCCOCCOCCOCCOCCOCCOCCOCCOCCOCCOCCOCCOCCOCCOCCOCCOC(=O)C1CCC(CNc2c3c4c5c(c(OC)c(=O)c6c(NCC7CCC(C(=O)OCCOCCOCCOCCOCCOCCOCCOCCOCCOCCOCCOCCOCCOCCOCCOCCOC)CC7)cc(OC)c(c7c(OC)cc(O)c(c2=O)c74)c65)CC(C)=C3)CC1 (stereo not drawn) [HC-13d-PEG16]	625 nm	31,500 M^−1cm^−1	30
COc1c2c3c4c(c(NCC5CCC(C(=O)O)CC5)c(=O)c5c(O)cc(OC)c(c6c(OC)cc(NCC7CCC(C(=O)O)CC7)c(c1=O)c63)c54)C=C(C)C2C(C)=O (stereo not drawn) [HB-13d]	621 nm	28,000 M^−1cm^−1	28
COc1c2c3c4c(c(NCC5CCC(C(=O)OCCCC[P+](c6ccccc6)(c6ccccc6)c6ccccc6)CC5)c(=O)c5c(O)cc(OC)c(c6c(OC)cc(NCC7CCC(C(=O)OCCCC[P+](c8ccccc8)(c8ccccc8)c8ccccc8)CC7)c(c1=O)c63)c54)C=C(C)C2 (stereo not drawn) [HC-30d-C4-PPh3^+]	630 nm	32,500 M^−1cm^−1	31
CCCCCCNc1c(NCCCCCC)c2c(=O)cc(OC)c3c4c(OC)cc(=O)c5c(O)c(OC)c6c(c(c1C=C(C)C6)c23)c54 [HC-34a]	625 nm	31,500 M^−1cm^−1	30
COc1c2c3c4c(c(NCCCCCC(=O)O)c(=O)c5c(NCCCCCC(=O)O)cc(OC)c(c6c(OC)cc(O)c(c1=O)c63)c54)C=C(C)C2 [HC-9c]	628 nm	27,000 M^−1cm^−1	29
COCCOCCN1CCC(CNc2c(NCC3CCN(CCOCCOC)CC3)c3c(=O)cc(OC)c4c5c(OC)cc(=O)c6c(O)c(OC)c7c(c(c2C=C(C)C7C(C)=O)c34)c65)CC1 (stereo not drawn) [HB-32a-PEG1]	622 nm	32,000 M^−1cm^−1	32
COc1c2c3c4c(c(NC5CCC(C(=O)O)CC5)c(=O)c5c(O)cc(OC)c(c6c(OC)cc(NC7CCC(C(=O)O)CC7)c(c1=O)c63)c54)C=C(C)C2C(C)=O (stereo not drawn) [HB-14d]	623 nm	27,000 M^−1cm^−1	24
COc1c(O)c2c(=O)cc(OC)c3c4c(OC)cc(=O)c5c(NCCO)c(NCCO)c6c(c(c1C(C(C)=O)C(C)=C6)c23)c54 (stereo not drawn) [HB-2a]			28
C=CC1=C(C)c2cc3[nH]c(cc4[nH]c(cc5nc(cc1n2)C(C)=C5C=C)c(C)c4CCC(=O)O)c(CCC(=O)O)c3C [PpIX, reference compound]	570 nm and 630 nm	less than 10000 M^−1cm^−1	
